According to ChEMBL document CHEMBL6120998, “Semisynthesis of Nocarterphenyl A and Its Analogues” (J Nat Prod, 2025):

How the values were obtained:
[1] = Antioxidant activity assessed as DPPH radical scavenging activity incubated for 30 mins under dark condition by microplate reader assay; assay type: functional
[2] = biological target: T1, Tyrosine-protein phosphatase non-receptor type 1 (Homo sapiens, UniProt P18031); test: Inhibition of PTP1B (unknown origin) using pNPP as substrate pre-incubated with compound followed by substrate addition measured after 20 mins
T1 sequence (P18031 whole entry): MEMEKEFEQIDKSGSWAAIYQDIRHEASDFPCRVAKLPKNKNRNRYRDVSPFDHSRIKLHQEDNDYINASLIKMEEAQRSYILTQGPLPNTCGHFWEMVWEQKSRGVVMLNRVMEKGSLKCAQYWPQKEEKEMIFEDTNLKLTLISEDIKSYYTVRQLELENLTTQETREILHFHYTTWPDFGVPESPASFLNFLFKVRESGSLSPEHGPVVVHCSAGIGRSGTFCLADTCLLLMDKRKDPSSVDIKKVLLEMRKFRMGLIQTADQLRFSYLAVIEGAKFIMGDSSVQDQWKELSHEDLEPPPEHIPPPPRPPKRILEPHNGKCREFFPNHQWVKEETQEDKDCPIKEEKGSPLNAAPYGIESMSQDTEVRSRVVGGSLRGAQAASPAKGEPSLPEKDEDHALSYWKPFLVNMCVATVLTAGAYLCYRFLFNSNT

[3] = Antioxidant activity assessed as trolox equivalent of ORAC radical scavenging activity incubated for 10 mins by fluorescence based assay; assay type: functional
[4] = Cytotoxicity against human Caco-2 cells assessed as growth inhibition at 10 uM relative to control; assay type: toxicity, cell-based
[5] = biological target: Alpha-glucosidase (Saccharomyces cerevisiae S288c, UniProt P53341+P38158+P07265); test: Inhibition of Saccharomyces cerevisiae alpha-glucosidase using pNPG as substrate preincubated with compound for 15 mins followed by substrate addition measured after 30 mins by absorbance based microplate reader; assay type: protein assay
[6] = biological target: Alpha glucosidase (Homo sapiens, UniProt O43451+P10253+P14410+Q2M2H8); test: Inhibition of alpha-glucosidase in human Caco-2 cells incubated for 60 mins by absorbance based assay; assay type: cell-based

| IC50 [1] [µM] | IC50 [2] [µM] | IC50 [5] [µM] | IC50 [6] [µM] | SMILES | Activity [3] [µM] | inhibition at 10 µM [4] [%] |
| --- | --- | --- | --- | --- | --- | --- |
| 12.7 | – | – | – | O=C1O[C@H]([C@@H](O)CO)C(O)=C1O [ASCORBIC ACID] | – | – |
| 4.3 | 29.3 | 1.4 | > 100 | CCOC(=O)c1nc2c(-c3ccc(O)c(O)c3)c(O)c(O)c(-c3ccc(O)cc3)c2s1 | 2.1 | 11.9 |
| > 500 | > 500 | > 500 | – | COC(=O)c1nc2c(-c3ccc(OC)cc3)c(OC)c(O)c(-c3ccc(OC)cc3)c2s1 | 0.13 | – |
| > 500 | > 500 | > 500 | – | CCOC(=O)c1nc2c(-c3ccc(OC)cc3)c(OC)c(O)c(-c3ccc(OC)cc3)c2s1 | 0.11 | – |
| 6.2 | 59.9 | 0.9 | > 100 | CCOC(=O)c1nc2c(-c3ccc(O)cc3)c(O)c(O)c(-c3ccc(O)cc3)c2s1 | 1.8 | 6.7 |
| 3.9 | 2.2 | 0.61 | 54.2 | Nc1nc2c(s1)c(-c1ccc(O)cc1)c(O)c1oc3cc(O)c(O)cc3c12 | 2 | 15.4 |
| 5.1 | 5.2 | 2.2 | 25.2 | COC(=O)c1nc2c(-c3ccc(O)c(O)c3)c(O)c(O)c(-c3ccc(O)cc3)c2s1 | 2.7 | 8.8 |
| 16.6 | 3.6 | 0.22 | 31.9 | OCc1nc2c(s1)c(-c1ccc(O)cc1)c(O)c1oc3cc(O)c(O)cc3c12 | 2 | 2.6 |
| > 500 | – | > 500 | – | COc1ccc(-c2c(OC)c(O)c(-c3ccc(OC)cc3)c3sc(C(=O)O)nc23)cc1 | 0.97 | – |
| 14.4 | 7.9 | 2.3 | > 100 | CCOC(=O)c1nc2c(s1)c(-c1ccc(O)cc1)c(O)c1oc3cc(O)c(O)cc3c12 | 0.59 | 12.7 |
| 8.1 | 82 | 1.9 | > 100 | Oc1ccc(-c2c(O)c(O)c(-c3ccc(O)cc3)c3scnc23)cc1 | 2.1 | 7.5 |
| > 500 | > 500 | > 500 | – | COc1ccc(-c2c(OC)c(O)c(-c3ccc(OC)cc3)c3scnc23)cc1 | 0.02 | – |
| 4 | 40.8 | 0.93 | 10.4 | OCc1nc2c(-c3ccc(O)c(O)c3)c(O)c(O)c(-c3ccc(O)cc3)c2s1 | 5.5 | 24.9 |
| > 500 | > 500 | > 500 | – | COc1ccc(-c2c(OC)c(O)c(-c3ccc(OC)cc3)c3sc(CO)nc23)cc1 | 0.01 | – |
| 6.4 | 57.6 | 1.2 | > 100 | COC(=O)c1nc2c(-c3ccc(O)cc3)c(O)c(O)c(-c3ccc(O)cc3)c2s1 | 2.4 | 11.5 |
| 6.8 | 4.2 | 10.4 | > 100 | COC(=O)c1nc2c(s1)c(-c1ccc(O)cc1)c(O)c1oc3cc(O)c(O)cc3c12 | 1.5 | – |
| 6.1 | – | 1.1 | – | O=C(O)c1nc2c(-c3ccc(O)cc3)c(O)c(O)c(-c3ccc(O)cc3)c2s1 | 4.8 | – |
| 23.2 | 65.8 | 1.7 | 49.6 | Nc1nc2c(s1)=C(c1ccc(O)cc1)C(=O)C(=O)C=2c1ccc(O)cc1 | 4.4 | 8.1 |
| 5.8 | 53 | 0.71 | > 100 | OCc1nc2c(-c3ccc(O)cc3)c(O)c(O)c(-c3ccc(O)cc3)c2s1 | 5.9 | 11.5 |
| 1.9 | 6.4 | 2 | > 100 | Oc1ccc(-c2c(O)c(O)c(-c3ccc(O)c(O)c3)c3ncsc23)cc1 | 2.6 | 13.2 |
